# According to publication PMC12563652 (International Journal of Molecular Sciences, 2025):
# Tests used:
# Danio rerio larvae = assay: Fructose-induced lipid disturbance in zebrafish larvae (Oil Red O); assay type: in vivo; details: 10 µg/mL with 4% fructose, 24 h
# Experimental: Zebrafish larvae 4 dpf were incubated for another 24 h with 4% fructose (final solution) in embryo medium to induce metabolic disorders. Tested solutions (compounds in E3: JP-14 at concentration of 20 μg/mL or resveratrol of 40 μg/mL) were added to fructose solution (8% in E3). The final concentration of JP-14 was 10 μg/mL or resveratrol of 20 μg/mL. The control group was incubated with E3 only. Incubation was carried out in a 6-well plate (10 larvae/well) to which 3 mL of liquid was added per well. Larvae were then collected, euthanized with tricaine, and transferred to 4% formaldehyde solution. After 24 h, larvae were washed 3 times with PBS (Sigma-Aldrich, Germany) and stained for neutral lipids, similar to previous studies. Larvae incubated for 1 h in a solution of 0.25% oil red O (ORO, Merck, Darmstadt, Germany) in 60% isopropanol (Merck, Germany). The samples were then rinsed three times with 60% isopropanol and washed 6 times with PBS, then imaged on a microscope (OPTA-TECH MN16, Warszawa, Poland) and analyzed with the ImageJ FIJI program. […] Next, the samples were centrifuged (10 min, 3000 rpm, MPW-260R, MPW Med Instruments, Warszawa, Poland), and the amount of dye in supernatant was determined spectrophotometrically (MuLTISKAN.GO, Thermo Fisher Scientific Inc. Waltham, MA, USA) at a wavelength of 495 nm.
# 3T3-L1 cells = assay: Lipid accumulation (AdipoRed assay) in 3T3-L1 cells; assay type: cell-based, mouse
# Experimental: The 3T3-L1 mouse embryonic fibroblast cell line (ATCC CRL-11605) was cultured according to the standard protocol in Dulbecco’s Modified Eagle Medium (DMEM) supplemented with 10% bovine calf serum, 100 µg/mL streptomycin, and 100 IU/mL penicillin, at 37 °C in a humidified atmosphere containing 5% CO2. Cells were seeded at a density of 10,000 cells/well in collagen type I–coated (10 µg/mL) 96-well plates and allowed to attach for 24 h. Differentiation was initiated by replacing the medium with induction medium composed of DMEM, 0.5 mM 3-isobutyl-1-methylxanthine (IBMX), 1 µM dexamethasone, and 10% fetal bovine serum (FBS). After 48 h (differentiation day 2), the medium was replaced with DMEM supplemented with 10% FBS and 10 µg/mL human recombinant insulin. After an additional 24 h, the medium was replaced with DMEM supplemented with 10% bovine calf serum, 100 µg/mL streptomycin, and 100 IU/mL penicillin. The medium was refreshed every 24 h for 10 consecutive days to allow full differentiation into adipocytes.
# On day 10 of differentiation, cells were treated with test compounds for 24 h. To investigate the involvement of the TAAR1 receptor, cells were pre-treated for 15 min with the selective TAAR1 antagonist RTI-7470-44 (40 nM) before compound exposure. After incubation, the culture medium was removed, and wells were gently rinsed with 200 µL PBS and refilled with 200 µL PBS. AdipoRed reagent (5 µL; Lonza) was added to each well, mixed, and incubated at room temperature for 10 min. Fluorescence was measured using the POLARstar Omega plate reader (excitation 485 nm, emission 535 nm).
# C57BL/6 mice = assay: Inhibition of gastric emptying (mouse model, phenol red); assay type: in vivo
# Experimental: Fifty male C57BL/6 mice (22–27 g) were housed in standard cages while maintaining a 12:12-h light/dark cycle, with food and water available ad libitum. The experimental procedures were performed from 10:00 a.m. to 14:00 p.m.
# The experiment was conducted according to Miyasaka et al. and Kotańska et al., with some minor modifications. Mice were subjected to a 20 h food deprivation and a 2 h water deprivation prior to testing. The animals received a vehicle (0.25 mL/mouse) alone or along with various compounds: JP-14 (10 mg/kg b. w.), RT (5 mg/kg body weight), metformin (100 mg/kg b. w.), or loperamide (reference compound; 10 mg/kg b. w.) via gastric gavage. Following a 45 min interval, phenol red (0.5 mL, 0.05% w/v) combined with glucose (1 g/kg body weight) was administered through the same route. Additionally, each group received an intraperitoneal injection of heparin (2500 U/mouse) 20 min prior to the collection of stomach contents. Seven mice treated with the vehicle were sacrificed immediately after the phenol red administration to serve as a standard control (representing 100% phenol red in the stomach at 0 min), establishing a baseline for maximum absorbance (100%). The leftover mice were sacrificed 30 min later. The stomachs were removed and homogenized using an OMNI homogenizer (OMNI International Company, Kennesaw, GA, USA), with 10 mL of 0.1 N NaOH. To 5 mL of homogenate, 0.5 mL of 20% w/v solution of trichloroacetic acid was incorporated to precipitate the proteins. Subsequently, the samples were centrifuged at 600× g for 15 min at a temperature of 20 °C, and 0.25 mL of supernatant was mixed with 1 mL of 0.5 N NaOH to achieve maximum color intensity. The concentration of phenol red was measured using spectrophotometry, with absorbance evaluated at a wavelength of 560 nm (MuLTISKAN.GO, Thermo Fisher Scientific Inc., Waltham, MA USA). For each mouse, the percentage of gastric emptying (GE %) was calculated using the following equation:(1) GE%=(Ac0−Ab)/(Ac0−Ac30)×100% where: Ac0 is the absorbance of the control gastric sample collected immediately after dye administration, and Ac30 is the absorbance of the control gastric sample collected 30 min after dye administration, i.e., Ac0–Ac30 = 100% gastric emptying.
smiles,measurement,setting,value
"[H]/N=C(\N)NN=Cc1c(Cl)cncc1Cl [JP-14, (E)-2-((3,5-Dichloropyridin-4-yl)Methylene)Hydrazine-1-Carboximidamide]",fructose-induced yolk enlargement,Danio rerio larvae,partially attenuated
same,lipid-lowering effect under TAAR1 blockade,3T3-L1 cells; 10 µM + RTI-7470-44 (40 nM),completely abolished
same,"lipid accumulation (intracellular lipid content), reduction","3T3-L1 cells; 10 µM, compared to vehicle-treated controls",35%
same,reduction of the effect of JP-14 on gastric emptying by RTI-7470-44,C57BL/6 mice; JP-14 10 mg/kg + RTI-7470-44 5 mg/kg b.w.,about 40%
same,percentage inhibition of gastric emptying,C57BL/6 mice; JP-14 10 mg/kg b.w. combined with RTI-7470-44 5 mg/kg b.w.,about 25%
same,percentage inhibition of gastric emptying,"C57BL/6 mice; intragastric, 10 mg/kg b.w.",about 66%
